The values below are quoted from earlier work in patent publication US10285597B2 (dated 2019).

The conditions of this series: TOL relative to TOSS (Ain=1 by definition); according to Bouillon et al., Anesthesiology 2004; 101: A503.

With `CC(C)c1cccc(C(C)C)c1O` [propofol], the “C50 ratio of propofol for the tolerance of laryngoscopy as well as tolerance of shaking and loud shouting (stimulus intensity Ain for TOL)” value is 2.83.
